Measured values from US4044151A, “Sulfamidophenethanolamine therapeutic process” (Mead Johnson & Company, priority 1975, dated 1977).

How the values were obtained:
[1] = anti-arrhythmic activity
[2] = tested on: beta-adrenergic receptors; assay: beta-adrenergic blocking action and its selectivity (cardiac, vascular smooth muscle, metabolic effects); type: in vivo; settings: for relative specificity of beta-adrenergic antagonism, peripheral vasculature versus heart: effects of beta-adrenergic agonists; for level of activity: in vivo

SMILES	anti-arrhythmic activity [1]	anti-arrhythmic potency relative to procainamide ([1]; versus procainamide)	anti-arrhythmic potency relative to quinidine ([1]; versus quinidine)	relative specificity of beta-adrenergic antagonism, peripheral vasculature versus heart [2]	level of activity [2]	selectivity of beta-adrenergic blocking action, cardiac and smooth muscle versus metabolic effects ([2]; versus anti-hyperglycemia and anti-hyperlactacidemia)
CC(C)NCC(O)c1ccc(NS(=O)(=O)N(C)C)cc1 (centres unmarked) [N,N-dimethyl-N'-[4-(1-hydroxy-2-isopropylaminoethyl)phenyl]sulfamide]	potent anti-arrhythmic agent	2.6 times	1.3 times	relative specificity for antagonism of the effects of beta-adrenergic agonists on the peripheral vasculature	high level of activity	relatively selective for cardiac and smooth muscle as opposed to the metabolic effects of anti-hyperglycemia and anti-hyperlactacidemia
CC(C)NCC(O)c1ccc(NS(N)(=O)=O)cc1 (centres unmarked) [N-[4-(1-hydroxy-2-isopropylaminoethyl)phenyl]sulfamide]	–	–	–	relatively stronger antagonist of the direct cardiac stimulatory effects evoked by beta-adrenergic agonists than of the peripheral vascular smooth muscle	high level of activity	–
